Measurements as given in ChEMBL document CHEMBL3351700, “Synthesis, GluN2B affinity and selectivity of benzo[7]annulen-7-amines” (Bioorg Med Chem, 2014).

What was measured:
[1] = Displacement of [3H]DTG from sigma2 receptor in rat liver membranes after 180 mins by scintillation counting method; format: cell membranes, Membrane
[2] = target: Glutamate receptor ionotropic, NMDA 2B (Homo sapiens, UniProt Q05586+Q13224); experiment: Displacement of [3H]ifenprodil from human GluN2B expressed in mouse L(tk-) cells co-expressing GluN1a after 120 mins by scintillation counting method; format: cell-based
Glutamate receptor ionotropic, NMDA 2B, sequence (Q13224 whole entry, one chain of several): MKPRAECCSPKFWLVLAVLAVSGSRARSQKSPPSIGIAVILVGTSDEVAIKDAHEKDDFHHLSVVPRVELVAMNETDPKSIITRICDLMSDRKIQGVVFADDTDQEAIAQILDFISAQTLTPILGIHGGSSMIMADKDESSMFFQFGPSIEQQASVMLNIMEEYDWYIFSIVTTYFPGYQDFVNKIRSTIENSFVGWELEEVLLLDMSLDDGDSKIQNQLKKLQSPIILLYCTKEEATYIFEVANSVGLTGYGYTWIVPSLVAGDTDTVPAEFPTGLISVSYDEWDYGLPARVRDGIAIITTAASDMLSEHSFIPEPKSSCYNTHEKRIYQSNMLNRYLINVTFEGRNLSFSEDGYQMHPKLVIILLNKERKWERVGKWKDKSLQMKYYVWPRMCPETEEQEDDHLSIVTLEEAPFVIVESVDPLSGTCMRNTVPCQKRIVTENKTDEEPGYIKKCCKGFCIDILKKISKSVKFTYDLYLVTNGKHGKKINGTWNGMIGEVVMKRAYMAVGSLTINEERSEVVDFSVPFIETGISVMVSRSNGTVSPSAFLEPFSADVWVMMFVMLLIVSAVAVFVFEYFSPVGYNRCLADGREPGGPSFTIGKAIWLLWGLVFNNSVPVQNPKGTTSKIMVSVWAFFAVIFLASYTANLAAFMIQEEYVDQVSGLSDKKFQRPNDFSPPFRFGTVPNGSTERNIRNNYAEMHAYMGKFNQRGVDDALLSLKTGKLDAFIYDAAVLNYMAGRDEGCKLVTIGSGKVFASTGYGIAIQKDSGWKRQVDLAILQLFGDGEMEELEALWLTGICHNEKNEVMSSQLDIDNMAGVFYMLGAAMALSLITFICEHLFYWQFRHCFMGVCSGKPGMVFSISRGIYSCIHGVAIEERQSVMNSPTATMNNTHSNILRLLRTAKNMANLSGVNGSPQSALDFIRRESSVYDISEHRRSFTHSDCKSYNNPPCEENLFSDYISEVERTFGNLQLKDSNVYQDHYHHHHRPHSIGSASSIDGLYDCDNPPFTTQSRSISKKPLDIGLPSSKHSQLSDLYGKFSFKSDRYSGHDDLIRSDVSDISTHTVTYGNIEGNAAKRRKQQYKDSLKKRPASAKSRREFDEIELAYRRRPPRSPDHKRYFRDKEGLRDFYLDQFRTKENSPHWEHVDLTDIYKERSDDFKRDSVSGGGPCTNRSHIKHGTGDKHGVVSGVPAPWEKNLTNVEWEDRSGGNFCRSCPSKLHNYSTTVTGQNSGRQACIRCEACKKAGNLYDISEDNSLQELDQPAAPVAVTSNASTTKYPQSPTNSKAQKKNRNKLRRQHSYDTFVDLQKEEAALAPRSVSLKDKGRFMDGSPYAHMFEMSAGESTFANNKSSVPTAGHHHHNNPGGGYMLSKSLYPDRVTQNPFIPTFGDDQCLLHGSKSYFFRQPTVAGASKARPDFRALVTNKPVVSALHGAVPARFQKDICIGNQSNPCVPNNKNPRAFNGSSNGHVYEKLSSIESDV

[3] = organism: Cavia porcellus; experiment: Displacement of [3H]-(+)-MK-801 from N-methyl D-aspartate receptor phencyclidine binding site in guinea pig brain cortex membranes at 1 uM after 150 mins by scintillation counting method; format: cell membranes
[4] = target: Sigma non-opioid intracellular receptor 1 (Cavia porcellus, UniProt Q60492); experiment: Displacement of [3H](+)-pentazocine from sigma1 receptor in guinea pig brain membranes after 180 mins by scintillation counting method; format: cell membranes, Membrane
Sigma non-opioid intracellular receptor 1, sequence (Q60492 whole entry): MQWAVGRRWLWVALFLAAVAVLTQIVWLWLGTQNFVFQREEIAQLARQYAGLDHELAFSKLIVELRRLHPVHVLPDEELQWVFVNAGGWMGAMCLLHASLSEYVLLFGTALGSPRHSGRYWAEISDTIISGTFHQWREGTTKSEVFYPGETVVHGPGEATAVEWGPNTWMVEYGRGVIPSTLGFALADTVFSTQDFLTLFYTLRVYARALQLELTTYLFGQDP

Row | Structure (SMILES) | Ki [1] [µM] | Ki [2] [µM] | inhibition [3] [%] | Ki [4] [µM]
1 | c1ccc([C@H]2CC[C@@H](NC3CCc4ccccc4CC3)CC2)cc1 | 0.003 | 0.0023 | 43 | 0.014
2 | c1ccc(CNC2CCc3ccccc3CC2)cc1 | 0.203 | 0.057 | 16 | 0.107
3 | c1ccc(CCNC2CCc3ccccc3CC2)cc1 | 0.198 | 0.02 | 0 | 0.022
4 | c1ccc(CCCNC2CCc3ccccc3CC2)cc1 | 0.027 | 0.016 | 0 | 0.15
5 | c1ccc(CC2CCN(C3CCc4ccccc4CC3)CC2)cc1 | 0.0054 | 0.0029 | 30 | 0.0057
6 | c1ccc(CCCCNC2CCc3ccccc3CC2)cc1 | 0.055 | 0.017 | 2 | 0.216
7 | COc1ccc2c(c1)CCC(NCCCc1ccccc1)CC2 (stereo unspecified) | 0.015 | 0.01 | 0 | 0.027
8 | COc1ccc2c(c1)CCN(CCCCc1ccccc1)CC2O (stereo unspecified) | 0.554 |  | 22 | 
9 | c1ccc(N2CCN(C3CCc4ccccc4CC3)CC2)cc1 | 0.2 | 0.012 | 5 | 0.182
10 | c1ccc([C@H]2CC[C@H](NC3CCc4ccccc4CC3)CC2)cc1 | 0.014 | 0.0057 | 30 | 0.02
11 | COc1ccc2c(c1)CCC(NCCCc1ccccc1)CC2O (stereo unspecified) | 0.0092 | 0.016 | 12 | 0.132
12 | c1ccc(C2CCN(C3CCc4ccccc4CC3)CC2)cc1 | 0.018 | 0.0069 | 11 | 0.022
